Reference: US7465789B2, “Adenosine receptor” (Schering Corporation, priority 2001, dated 2008)

Legend:
SP166 [1] = target: T1, SP166 (Homo sapiens, UniProt Q9BXA5, L244P); experiment: Radioligand saturation and competition binding assay with [3H]-NECA on membranes of cells transfected with SP166; conditions: radioligand saturation and competition assays
T1 construct: expressed in transfected cells; host or cells: BAF/3 (murine IL-3 dependent B-cell line), retroviral transduction, G418 selection
T1 sequence (Q9BXA5 1-334 L244P): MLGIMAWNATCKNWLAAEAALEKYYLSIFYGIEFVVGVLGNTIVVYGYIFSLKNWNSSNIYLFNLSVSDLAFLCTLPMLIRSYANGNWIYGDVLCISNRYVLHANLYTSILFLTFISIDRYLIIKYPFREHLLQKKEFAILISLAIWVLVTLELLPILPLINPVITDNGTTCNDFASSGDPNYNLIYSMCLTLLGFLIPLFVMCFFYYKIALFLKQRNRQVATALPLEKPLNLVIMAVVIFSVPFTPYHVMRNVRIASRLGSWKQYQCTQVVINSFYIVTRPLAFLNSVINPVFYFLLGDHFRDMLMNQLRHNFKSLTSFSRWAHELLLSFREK
Method: Membrane preparation: Cells transfected with SP166 as described above were harvested by incubating in 5 mM EDTA/phosphate-buffered saline followed by repeated pipetting. The cells were centrifuged 5 min at 1000×g. The EDTA/PBS was decanted and an equal volume of ice-cold 50 mM Tris-HCl, pH 7.5, was added and cells were broken up with a Polytron (PT10 tip, setting 5, 30 sec). Nuclei and unbroken cells were sedimented at 1000×g for 10 min and then the supernatant was centrifuged at 50,000×g for 10 min. The supernatant was decanted, the pellet was resuspended by Polytron, a sample was taken for protein assay (bicinchoninic acid, Pierce), and the tissue was again centrifuged at 50,000×g. Pellets were stored frozen at […].
Binding assay: For saturation binding, four concentrations of [^3H]-NECA were incubated without and with 10^−5 M adenosine in triplicate with 50 ug of membrane protein in a total volume of 200 μl of 50 mM Tris-HCl, pH 7.5, for 30 min at 30° C. Samples were filtered on GF/B filters and washed thrice with 2 ml of cold Tris buffer. Filters were dried in a microwave oven, impregnated with Meltilex wax scintillant, and counted at 45% efficiency. For competition binding assays, five concentrations of compounds were incubated in triplicate with 18 nM [^3H]NECA and 70 μg of membrane protein under the conditions described above. […]

mock transfected cells = experiment: FLIPR intracellular Ca++ flux assay in mock transfected cells
Method: To generate stable transfectants, full-length expression constructs were made in the murine IL-3 dependent B-cell line, BAF/3. Human SP166 was cloned into the retroviral vector, pMX-CD8-myc with 5′ EcoR1 and 3′ Not1 sites. […] To generate high-titer retroviral stock, the ecotropic packaging line BOSC 23 was used as described (Onishi, et al. 1996). Culture supernatants from these cells, containing viral particles, were used to infect BAF/3 cells. Transfectants underwent selection with 1 mg/ml G418 and were further enriched by fluorescence-activated cell sorting and single cell cloning using anti-myc antibody to the N-terminal myc tag.
For the assay, growth media was removed and replaced with medium containing RPMI, 10% FBS, and 1 mM Fluo3-AM (Sigma) (dissolved in 10% pluronic acid in DMSO). […] 50,000 cells in a volume of 100 ml were added to the plates, and the plates were placed into a Fluorescent Imaging Plate Reader (FLIPR, Molecular Devices) equilibrated to 37° C. In the FLIPR, changes in intracellular [Ca^++] levels were measured by excitation of Fluo3 fluorescence at 488 nm while fluorescence output was monitored at 500-560 nm. Fluorescence was monitored once per second for 1 minute, and every 6 seconds for 2 minutes thereafter. […] Values extracted for data analysis represented the maximal fluorescence value minus the minimal fluorescence value detected following, the drug addition. […]

SP166 [2] = target: T1, SP166; experiment: FLIPR intracellular Ca++ flux assay in BAF/3 cells stably transfected with SP166; assay type: cell-based

Q: Which results are given for `Nc1ncnc2c1ncn2[C@@H]1O[C@H](CO)[C@@H](O)[C@H]1O` [adenosine]?
A: binding to the cloned receptor (SP166 [1]): able to bind; activation by adenosine in mock transfected cells (mock transfected cells): not observed; activation of SP166 (change in intracellular Ca++) (SP166 [2]; naturally occurring nucleotides and nucleosides examined, SP166-transfected BAF/3 cells): specifically activated

Q: For Nα-methyladenosine, which “activation of SP166 by adenosine analogs” value (SP166 [2]) is on record?
A: able to activate

Q: For (R)α-methyladenosine, which “activation of SP166 by adenosine analogs” value (SP166 [2]) is on record?
A: able to activate

Q: For (S)α-methyladenosine, which “activation of SP166 by adenosine analogs” value (SP166 [2]) is on record?
A: inactive
